Measured values: patent publication US9174998B2, “(6S,9aS)-N-benzyl-6-[(4-hydroxyphenyl)methyl]-4,7-dioxo-8-({6-[3-(piperazin-1-yl)azetidin-1-yl]pyridin-2-yl}methyl)-2-(prop-2-en-1-yl)-octahydro-1H-pyrazino[2,1-c][1,2,4]triazine-1-carboxamide compound” (Eisai R&D Management Co., Ltd., priority 2013, dated 2015)
Values after ≈ are worked out from the molar mass of the structure shown. Where two headings read alike, the source gives them in different places.

Tests used:
[1] = test system: Wnt signal; experiment: Detection of Wnt signal (TOPglow luciferase reporter, LiCl-stimulated); type: cell-based; details: Homo sapiens; HEK293 clone carrying pNeo-TOP reporter; LiCl stimulation; luciferase luminescence; read-out: Test Example 1 IC50 (concentration required for inhibiting the Wnt signal activity by 50%)
Description: pcDNA3.1(+) (invitrogen) was cleaved with restriction enzymes BglII and NotI, and an adapter BEHKS having a sequence shown below (containing restriction enzyme sites BglII, EcoRI, HindIII, KpnI, SacI and NotI) was inserted thereinto, thereby producing a plasmid pNeo-HKS.
Subsequently, a fragment having a length of about 2700 bp (containing a Wnt-responsive sequence and a luciferase gene), which was prepared by cleaving from a TOPglow plasmid contained in a TOPglow/FOPglow TCF Reporter Kit (upstate Catalog#17-366) with restriction enzymes HindIII and KpnI, was inserted between HindIII and KpnI in pNeo-HKS, thereby producing a plasmid pNeo-TOP. The plasmid pNeo-TOP was introduced into human fetus-derived renal cell strain HEK293, then a compound was selected using G418, and then a cell clone strain was established by a limiting dilution method. The cell clone strain was subjected to a Wnt signal detection test.
The cell clone strain was subcultured in a D-MEM glucose-rich culture medium (Wako Pure Chemical Industries, Ltd.) containing 10% FBS, and cells in a growth phase were used in the test. Cells were collected using trypsin-EDTA, the number of the cells was counted, and then the cells were suspended in a D-MEM glucose-rich culture medium containing 10% FBS so that the number of cells became 2×10^5 cells/mL. The cell suspension was added to a 96-well cell culture plate (Greiner Bio-One Co., Ltd., product number: 655083) in an amount of 0.1 mL/well and then cultured overnight in a 5% CO2 incubator (37° C.). After the culturing, a substance to be tested, which was dissolved in DMSO, was diluted with a D-MEM glucose-rich culture medium containing 10% of FBS and 80 mM of LiCl to produce a sample solution. The sample solution (0.1 mL) was added to each well and then cultured in a 5% CO2 incubator (37° C.) […]. Six hours after the addition of the sample solution, a supernatant was removed from each well, and then 50 μL of Bright-Glo™ Luciferase substrate (Promega, product number: E2620) was added thereto. The plate was put on a plate mixer for several seconds, and then the emission of light from each well was measured using a EnVision™ Multilabel plate reader (PerkinElmer Co., Ltd.). The Wnt signal activation rate (%) of each well was determined, and a concentration (IC50) which is required for inhibiting the Wnt signal activity of a substance of interest by 50% was calculated, wherein the luminosity of a well to which a sample solution was not added and LiCl was added was defined as a 100% Wnt signal activity and the luminosity of a well to which either of a sample solution or LiCl was not added was defined as a 0% Wnt signal activity.

[2] = Evaluation of metabolic stability; type: in vitro ADME, human; details: 0.2 mg/mL HLM, 0.1 μM test substance, 15 minutes at 37° C., with vs without NADPH production
Description: A test substance was dissolved in DMSO so that the concentration of the resultant solution became 20 mM, and the solution was diluted with DMSO so that the concentration of the resultant solution became 1 mM. The metabolic stability of the test substance was evaluated using a human liver microsome (HLM) in which human liver was pooled. An assay buffer solution contained 0.2 mg/mL of HLM, a 0.1 M of phosphate potassium buffer solution (pH 7.4), 0.1 mM of EDTA, 0.33 mM of NADP+, 8 mM of glucose-6-phosphate, 0.1 U/mL of glucose-6-phosphate dehydrogenase, 6 mM of MgCl2, 0.1 μM of a test substance (final concentration in DMSO: 0.01%) in 0.15 mL of the final incubation volume. Fifteen minutes after the initiation of the reaction at 37° C., 0.15 mL of a acetonitrile/methanol mixed solution (7:3, by volume) was added to the solution to terminate the reaction. After centrifugation, the resultant supernatant was analyzed by LC-MSMS, peak areas were compared under the presence or absence of the production of NADPH, and the residual ratio of the test substance was calculated.

[3] = Evaluation of solubility (DMSO stock into PBS, HPLC-UV); type: physicochemical; details: Dulbecco's phosphate-buffered saline pH 7, room temperature, about 15 minutes shaking, values greater than 200 μM regarded as 200 μM, read-out: Test Example 3 solubility
Description: To 0.25 mL of a test solution a mentioned below was added 2.5 μL of a DMSO solution having a compound concentration of 20 mM. The resultant solution was shaken at room temperature for about 15 minutes (the conditions for the shaking are mentioned below). Subsequently, a supernatant was collected by a suction filtration under a reduced pressure. A DMSO solution having a compound concentration of 200 μM was used as a standard solution, and the concentration of a compound in a filtrate which was quantified by a HPLC-UV method was employed as a solubility (rounded off to the whole number). In this evaluation, since a value 200 μM became the upper limit operationally, all of quantification values greater than 200 μM were regarded as 200 μM.
Test solution: GIBCO (registered trade name) Dulbecco's phosphate-buffered saline (pH 7, Life Technologies Corporation)
Conditions for shaking: a microplate shaker N-704 (Nissinrika Corporation), speed 6

[4] = PAMPA test (parallel artificial membrane permeability assay); type: in vitro ADME; details: phosphate buffer pH 6.8, about 200 μM, about 5 hours, room temperature, read-out: Test Example 4 membrane permeation coefficient Pe
Description: A test solution (see below) was stirred while shaking at room temperature for about 5 hours using a 96-well PAMPA plate (BD Biosciences) in which a lipid had been precoated onto a polyvinylidene fluoride (PVDF) film to evaluate the membrane permeation coefficient Pe (cm/s) of each compound dissolved in the test solution (concentration: about 200 μM) upon the transport of the compound from a donor side to an acceptor side through a lipid membrane. The Pe value was calculated in accordance with equations 1 and 2, and the concentration of the compound on the donor side and the acceptor side was measured by a HPLC-UV method. In 0.3 mL of the test solution on the donor side is contained about 1% (v/v) of DMSO, since 3 μL of a DMSO solution containing the compound at a concentration of 20 mM was added to the test solution.
Test solution: a phosphate buffer solution having a pH value of 6.8 (90 mM of phosphate, 48 mM of NaCl, 5.4 mM of KCl)
Conditions for stirring: a multishaker MS-300 (AS ONE Corporation), 350 rpm
[formula] CD(t): compound concentration in donor well at time t CA(t): compound concentration in acceptor well at time t VD: donor well volume (0.3 mL) VA: acceptor well volume (0.2 mL) A: filter area (0.3 cm^2)

[5] = aqueous buffer, kinetic from dmso stock

Row | SMILES | IC50 [1] [nM] | Test Example 2 residual ratio of the test substance [2] [%] | solubility [3, 5] [µM] | Papp [4] [×10⁻⁶ cm/s] | solubility [3] [µM]
1 | C=CCN1CC(=O)N2[C@@H](Cc3ccc(O)cc3)C(=O)N(Cc3ccc(F)c(N4CC(N5CCN(C)CC5)C4)n3)C[C@@H]2N1C(=O)NCc1ccccc1 [Example 8, (6S,9aS)-N-Benzyl-8-((5-fluoro-6-(3-(4-methylpiperazin-1-yl)azetidin-1-yl)pyridin-2-yl)methyl)-6-((4-hydroxyphenyl)methyl)-4,7-dioxo-2-(prop-2-en-1-yl)-octahydro-1H-pyrazino[2,1-c][1,2,4]triazine-1-carboxamide] | 200 | 40 | 195 (≈ 139 µg/mL) | 2.3 | 
2 | C=CCN1CC(=O)N2[C@@H](Cc3ccc(O)cc3)C(=O)N(Cc3cccc(N4CC(N5CCN(C(C)C)CC5)C4)n3)C[C@@H]2N1C(=O)NCc1ccccc1 [Example 9, (6S,9aS)-N-Benzyl-6-((4-hydroxyphenyl)methyl)-4,7-dioxo-2-(prop-2-en-1-yl)-8-((6-(3-(4-(propan-2-yl)piperazin-1-yl)azetidin-1-yl)pyridin-2-yl)methyl)-octahydro-1H-pyrazino[2,1-c][1,2,4]triazine-1-carboxamide] | 150 | 34 | 194 (≈ 140 µg/mL) | 1.38 | 
3 | C=CCN1CC(=O)N2[C@@H](Cc3ccc(O)cc3F)C(=O)N(Cc3ccc(F)c(N4CC(N5CCN(C)CC5)C4)n3)C[C@@H]2N1C(=O)NCc1ccccc1 [Example 10, (6S,9aS)-N-Benzyl-6-((2-fluoro-4-hydroxyphenyl)methyl)-8-((5-fluoro-6-(3-(4-methylpiperazin-1-yl)azetidin-1-yl)pyridin-2-yl)methyl)-4,7-dioxo-2-(prop-2-en-1-yl)-octahydro-1H-pyrazino[2,1-c][1,2,4]triazine-1-carboxamide] | 44 | 28 | 184 (≈ 134 µg/mL) | 3.75 | 
4 | C=CCN1CC(=O)N2[C@@H](Cc3ccc(O)cc3F)C(=O)N(Cc3cccc(N4CC(N5CCN(C(C)C)CC5)C4)n3)C[C@@H]2N1C(=O)NCc1ccccc1 [Example 11, (6S,9aS)-N-Benzyl-6-((2-fluoro-4-hydroxyphenyl)methyl)-4,7-dioxo-2-(prop-2-en-1-yl)-8-((6-(3-(4-(propan-2-yl)piperazin-1-yl)azetidin-1-yl)pyridin-2-yl)methyl)-octahydro-1H-pyrazino[2,1-c][1,2,4]triazine-1-carboxamide] | 39 | 26 | 192 (≈ 142 µg/mL) | 2.55 | 
5 | C=CCN1CC(=O)N2[C@@H](Cc3c(F)cc(O)cc3F)C(=O)N(Cc3cccc(N4CC(N5CCN(C(C)C)CC5)C4)n3)C[C@@H]2N1C(=O)NCc1ccccc1 [Example 12, (6S,9aS)-N-Benzyl-6-((2,6-difluoro-4-hydroxyphenyl)methyl)-4,7-dioxo-2-(prop-2-en-1-yl)-8-((6-(3-(4-(propan-2-yl)piperazin-1-yl)azetidin-1-yl)pyridin-2-yl)methyl)-octahydro-1H-pyrazino[2,1-c][1,2,4]triazine-1-carboxamide] | 96 | 38 | 188 (≈ 142 µg/mL) | 0.87 | 
6 | C=CCN1CC(=O)N2[C@@H](Cc3c(F)cc(O)cc3F)C(=O)N(Cc3cccc(N4CC(N5CCN(CC)CC5)C4)n3)C[C@@H]2N1C(=O)NCc1ccccc1 [Example 13, (6S,9aS)-N-Benzyl-6-((2,6-difluoro-4-hydroxyphenyl)methyl)-8-((6-(3-(4-ethylpiperazin-1-yl)azetidin-1-yl)pyridin-2-yl)methyl)-4,7-dioxo-2-(prop-2-en-1-yl)-octahydro-1H-pyrazino[2,1-c][1,2,4]triazine-1-carboxamide] | 140 | 56 |  | 0.52 | 200 (≈ 149 µg/mL)
7 | C=CCN1CC(=O)N2[C@@H](Cc3c(F)cc(O)cc3F)C(=O)N(Cc3cccc(N4CC(N5CCN(C)CC5)C4)n3)C[C@@H]2N1C(=O)NCc1ccccc1 [Example 14, (6S,9aS)-N-Benzyl-6-((2,6-difluoro-4-hydroxyphenyl)methyl)-8-((6-(3-(4-methylpiperazin-1-yl)azetidin-1-yl)pyridin-2-yl)methyl)-4,7-dioxo-2-(prop-2-en-1-yl)-octahydro-1H-pyrazino[2,1-c][1,2,4]triazine-1-carboxamide] | 270 | 69 | 197 (≈ 144 µg/mL) | 0.39 | 
8 | C=CCN1CC(=O)N2[C@@H](Cc3ccc(O)cc3F)C(=O)N(Cc3cccc(N4CC(N5CCN(C)C[C@@H]5C)C4)n3)C[C@@H]2N1C(=O)NCc1ccccc1 [Example 15, (6S,9aS)-N-Benzyl-8-((6-(3-((2S)-2,4-dimethylpiperazin-1-yl)azetidin-1-yl)pyridin-2-yl)methyl)-6-((2-fluoro-4-hydroxyphenyl)methyl)-4,7-dioxo-2-(prop-2-en-1-yl)-octahydro-1H-pyrazino[2,1-c][1,2,4]triazine-1-carboxamide] | 75 | 45 | 195 (≈ 142 µg/mL) | 2.38 | 
9 | C=CCN1CC(=O)N2[C@@H](Cc3c(F)cc(O)cc3F)C(=O)N(Cc3cccc(N4CC(N5CCN(C)[C@@H](C)C5)C4)n3)C[C@@H]2N1C(=O)NCc1ccccc1 [Example 16, (6S,9aS)-N-Benzyl-6-((2,6-difluoro-4-hydroxyphenyl)methyl)-8-((6-(3-((3S)-3,4-dimethylpiperazin-1-yl)azetidin-1-yl)pyridin-2-yl)methyl)-4,7-dioxo-2-(prop-2-en-1-yl)-octahydro-1H-pyrazino[2,1-c][1,2,4]triazine-1-carboxamide] | 220 | 63 | 197 (≈ 147 µg/mL) | 0.51 | 
